Structures can show the parent of a compound that is named as a salt.
Test system: Acinetobacter baumannii ATCC17961
Assay: Antimicrobial susceptibility testing: 90% growth inhibitory concentration (IC90) determination, Iso-Sensitest broth, OD 600 nm
Type: cell-based
Conditions: 90% growth inhibitory concentration, Acinetobacter baumannii ATCC17961, Iso-Sensitest broth, OD 600 nm over 16 h; read-out: ATCC 17961 IC90
Method in brief: (§1)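 Twofold serial dilutions (e.g. 50–0.097 μM final) incubated with ~5×10^5 CFU/ml in Iso-Sensitest broth at 35±2 °C. OD600 read every 20 min for 16 h; IC90 derived from growth inhibition during logarithmic phase.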

| SMILES | IC90 |
| --- | --- |
| COc1ccc(-c2cnc3c(Nc4cc(C)c(C(=O)NCCOCCN=C(N(C)C)N(C)C)c(F)c4)nccn23)c(F)c1F [Example 212, N-(2-(2-((bis(dimethyl-amino)methylene)amino)ethoxy)ethyl)-4-((3-(2,3-difluoro-4-methoxyphenyl)imidazo[1,2-a]pyrazin-8-yl)amino)-2-fluoro-6-methylbenzamide formate] | 400 nM |
| CCc1cc(Nc2nccn3c(-c4ccc(OC)c(F)c4C(F)(F)F)cnc23)ccc1C(=O)NCCOCCN [Example 231] | 60 nM |
| C#CCOc1ccc(-c2cnc3c(Nc4ccc(C(=O)N[C@@H](C)CNCC(N)=O)c(CC)c4)nccn23)c(F)c1F [Example 207, N-[(1S)-2-[(2-amino-2-oxo-ethyl)amino]-1-methyl-ethyl]-4-[[3-(2,3-difluoro-4-prop-2-ynoxy-phenyl)imidazo [1,2-a]pyrazin-8-yl]amino]-2-ethyl-benzamide] | 350 nM |
| CCc1cc(Nc2nccn3c(-c4cc(C)cc(F)c4)cnc23)ccc1C(=O)NCCOCCN [Example 213, N-[2-(2-amino-ethoxy)ethyl]-2-ethyl-4-[[3-(3-fluoro-5-methyl-phenyl)imidazo [1,2-a]pyrazin-8-yl]amino] benzamide] | 810 nM |
| CCc1cc(Nc2nccn3c(-c4cc(F)ccc4F)cnc23)ccc1C(=O)NCCOCCN [Example 210, N-[2-(2-amino-ethoxy)ethyl]-4-[[3-(2,5-difluorophenyl)imidazo[1,2-a]pyrazin-8-yl]amino]-2-ethyl-benzamide] | 550 nM |
| CCc1cc(Nc2nccn3c(-c4cccc(F)c4C(F)(F)F)cnc23)ccc1C(=O)NCCOCCN [Example 179, N-[2-(2-aminoethoxy)ethyl]-2-ethyl-4-[[3-[3-fluoro-2-(trifluoromethyl)phenyl]imidazo [1,2-a]pyrazin-8-yl]amino] benzamide] | 300 nM |
| CCc1cc(Nc2nccn3c(-c4ccc(OC)c(F)c4F)cnc23)ccc1C(=O)NCCCCCN(C)C [Example 223, 4-((3-(2,3-difluoro-4-methoxyphenyl)imidazo[1,2-a]pyrazin-8-yl)amino)-N-(5-(dimethylamino)pentyl)-2-ethylbenzamide] | 30 nM |
| CCc1cc(Nc2nccn3c(-c4ccc(OC)cc4C(F)F)cnc23)ccc1C(=O)NCCOCCN [Example 229, N-[2-(2-amino-ethoxy)ethyl]-4-[[3-[2-(difluoro-methyl)-4-methoxy-phenyl]imidazo [1,2-a]pyrazin-8-yl]amino]-2-ethyl-benzamide] | 40 nM |
| C#CCNCCCCNC(=O)c1ccc(Nc2nccn3c(-c4ccc(OC)c(F)c4F)cnc23)cc1CC [Example 227, 4-[[3-(2,3-difluoro-4-methoxy-phenyl)imidazo[1,2-a]pyrazin-8-yl]amino]-2-ethyl-N-[4-(prop-2-ynylamino)butyl]benzamide] | 30 nM |
| COc1ccc(-c2cnc3c(Nc4cc(C)c(C(=O)NCCOCCNC(=O)[C@@H]5C[C@@H](O)CN5)c(F)c4)nccn23)c(F)c1F [Example 215, (2S,4R)-N-(2-(2-(4-((3-(2,3-difluoro-4-methoxyphenyl)imidazo[1,2-a]pyrazin-8-yl)amino)-2-fluoro-6-methyl-benzamido)ethoxy)ethyl)-4-hydroxy-pyrrolidine-2-carboxamide] | 230 nM |
| CCc1cc(Nc2nccn3c(-c4ccc(Oc5ccccn5)c(F)c4F)cnc23)ccc1C(=O)NCCNCC(=O)N1CCN[C@H](CO)C1 [Example 205, 4-[[3-[2,3-difluoro-4-(2-pyridyloxy)phenyl]imidazo [1,2-a]pyrazin-8-yl]amino]-2-ethyl-N-[2-[[2-[(3S)-3-(hydroxymethyl)piperazin-1-yl]-2-oxo-ethyl]amino]ethyl]benzamide] | 590 nM |
| CCc1cc(Nc2nccn3c(-c4ccc(OC)cc4CC)cnc23)ccc1C(=O)NCCOCCN [Example 206, N-(2-(2-amino-ethoxy)ethyl)-2-ethyl-4-((3-(2-ethyl-4-methoxyphenyl)imidazo[1,2-a]pyrazin-8-yl)amino)benzamide hydrochloride] | 260 nM |
| CCc1cc(Nc2nccn3c(-c4cc(Cl)c(OC)cc4F)cnc23)ccc1C(=O)NCCOCCN [Example 220, N-[2-(2-amino-ethoxy)ethyl]-4-[[3-(5-chloro-2-fluoro-4-methoxy-phenyl)imidazo[1,2-a]pyrazin-8-yl]amino]-2-ethyl-benzamide] | 80 nM |
| C#CCOc1ccc(-c2cnc3c(Nc4ccc(C(=O)N[C@@H](C)CNCCN)c(CC)c4)nccn23)c(F)c1F [Example 200] | 630 nM |
| CCc1cc(Nc2nccn3c(-c4ccc(OC)c(F)c4F)cnc23)ccc1C(=O)N[C@@H](C)CNCCN [Example 219, N-[(1S)-2-(2-aminoethyl-amino)-1-methyl-ethyl]-4-[[3-(2,3-difluoro-4-methoxy-phenyl)imidazo[1,2-a]pyrazin-8-yl]amino]-2-ethyl-benzamide; formic acid] | 580 nM |
| CCc1cc(Nc2nccn3c(-c4ccc(OC)c(F)c4F)cnc23)ccc1C(=O)NCCNCC(=O)N1CCN[C@H](CO)C1 [Example 178, 4-[[3-(2,3-difluoro-4-methoxyphenyl)imidazo[1,2-a]pyrazin-8-yl]amino]-2-ethyl-N-[2-[[2-[(3S)-3-(hydroxymethyl)piperazin-1-yl]-2-oxoethyl]amino]ethyl]benzamide] | 160 nM |

Same assay, conditions: Acinetobacter baumannii, ATCC17961, 16 h, read-out: ATCC 17961 IC90

| SMILES | IC90 |
| --- | --- |
| CCc1cc(Nc2nccn3c(-c4ccc(OC)c(F)c4F)cnc23)ccc1C(=O)NCCOCCN(C)CC(=O)NS(C)(=O)=O [Example 66, 4-((3-(2,3-difluoro-4-methoxyphenyl)imidazo[1,2-a]pyrazin-8-yl)amino)-2-ethyl-N-(2-(2-(methyl(2-(methylsulfonamido)-2-oxoethyl)amino)ethoxy)ethyl)benzamide dihydrochloride] | 370 nM |
| CCc1cc(Nc2nccn3c(-c4ccc(OC)c(F)c4F)cnc23)ccc1C(=O)NCCOCC(C)(C)N [Example 72, N-[2-(2-amino-2-methyl-propoxy)ethyl]-4-[[3-(2,3-difluoro-4-methoxy-phenyl)imidazo[1,2-a]pyrazin-8-yl]amino]-2-ethyl-benzamide; formic acid] | 40 nM |
| CCc1cc(Nc2nccn3c(-c4ccc(OC)cc4C(F)(F)F)cnc23)ccc1C(=O)NCCOCCN [Example 56, N-(2-(2-aminoethoxy)ethyl)-2-ethyl-4-((3-(4-methoxy-2-(trifluoromethyl)phenyl)imidazo[1,2-a]pyrazin-8-yl)amino)benzamide hydrochloride] | 80 nM |

Test system: Acinetobacter baumannii ATCC17978
Assay: as above
Type: cell-based
Conditions: 90% growth inhibitory concentration, Acinetobacter baumannii ATCC17978, Iso-Sensitest broth, OD 600 nm over 16 h; read-out: ATCC 17978 IC90
Method in brief: as §1

| SMILES | IC90 |
| --- | --- |
| CCc1cc(Nc2nccn3c(-c4ccc(OCC#N)c(F)c4F)cnc23)ccc1C(=O)NCCOCCN [Example 53, N-(2-(2-aminoethoxy)ethyl)-4-((3-(4-(cyanomethoxy)-2,3-difluorophenyl)imidazo[1,2-a]pyrazin-8-yl)amino)-2-ethylbenzamide] | 130 nM |

Same assay, conditions: Acinetobacter baumannii, ATCC17978, 16 h, 90% growth inhibitory concentration, Acinetobacter baumannii ATCC17978, Iso-Sensitest broth, OD 600 nm over 16 h; read-out: ATCC 17978 IC90

| SMILES | IC90 |
| --- | --- |
| Cc1cc(Nc2nccn3c(-c4ccc(OC(F)F)cc4)cnc23)ccc1C(=O)NCCOCCOCCOCCN [Example 17, N-(2-(2-(2-(2-aminoethoxy)ethoxy)ethoxy)ethyl)-4-((3-(4-(difluoromethoxy)phenyl)imidazo[1,2-a]pyrazin-8-yl)amino)-2-methylbenzamide] | 1100 nM |
| COc1ccc(-c2cnc3c(Nc4ccc(C(=O)NCCOCC(=O)N5CCNCC5)c(C)c4)nccn23)cc1 [Example 112, 4-[[3-(4-methoxyphenyl)imidazo[1,2-a]pyrazin-8-yl]amino]-2-methyl-N-[2-(2-oxo-2-piperazin-1-ylethoxy)ethyl] benzamide] | 570 nM |
